The species named for assay [1] is Mus musculus. Description: Increase in SGMS activity in mouse PancO2 cell lysates assessed as induction of NBD-sphingomyelin production at 0.5 uM using C12-NBD-ceramide substrate after 72 hrs by TLC relative to control.
Assay [2] in a line: Modulation of sphingomyelin pool in human L3.6p1 cells assessed as N16:0 level per mg protein at 500 nM after 48 hrs (reference value: 2.60 +/- 0.06 nmol). In kind it is functional.
Assay [3] is described as follows: Modulation of sphingomyelin pool in human L3.6p1 cells assessed as N23:0 level per mg protein at 500 nM after 48 hrs (reference value: 0.07 nmol). The assay is classed as functional.
Assay [4] in a line: Selectivity ratio of IC50 for CHO-MG cells to IC50 for PTS in CHO cells. Also on record: species or system Cricetulus griseus.
Assay [5] is described as follows: Antimigratory activity against human L3.6p1 cells at 1 uM after 24 hrs in presence of amine oxidase inhibitor aminoguanidine by scratch assay relative to control. The following applies: L3.6p1, 24 h. The assay is classed as functional.
Assay [6] is described as follows: Modulation of ceramide pool in human L3.6p1 cells assessed as N24:1 level per mg protein at 500 nM after 48 hrs (reference value: 0.37 +/- 0.06 nmol). In kind it is functional.
Assay [7] is described as follows: Modulation of ceramide pool in human L3.6p1 cells assessed as N24:0 level per mg protein at 500 nM after 48 hrs (reference value: 0.16 +/- 0.04 nmol). The assay is classed as functional.
The nature of assay [8]: Modulation of sphingomyelin pool in human L3.6p1 cells assessed as N23:1 level per mg protein at 500 nM after 48 hrs (reference value: 0.10 nmol). The assay is classed as functional.
Assay [9] is described as follows: Modulation of sphingomyelin pool in human L3.6p1 cells assessed as N24:2 level per mg protein at 500 nM after 48 hrs (reference value: 0.30 +/- 0.01 nmol). The assay is classed as functional.
Assay [10] is described as follows: Antiproliferative activity against human L3.6p1 cells after 48 hrs in presence of amine oxidase inhibitor aminoguanidine by MTS assay. The assay is classed as functional, cell-based. The following applies: for IC50: Homo sapiens, L3.6p1, 48 h. On the technique in general: Tetrazolium dyes change colour on reduction, which living cells bring about.
A short description of assay [11]: Modulation of ceramide pool in human L3.6p1 cells assessed as total ceramide level per mg protein at 500 nM after 48 hrs (reference value: 0.62 +/- 0.10 nmol). The assay is classed as functional.
Assay [12] in a line: Modulation of sphingomyelin pool in human L3.6p1 cells assessed as N22:2 level per mg protein at 500 nM after 48 hrs (reference value: 0.01 nmol). In kind it is functional.
A short description of assay [13]: Modulation of sphingomyelin pool in human L3.6p1 cells assessed as N23:2 level per mg protein at 500 nM after 48 hrs (reference value: 0.01 nmol). The assay is classed as functional.
Assay [14] is described as follows: Modulation of sphingomyelin pool in human L3.6p1 cells assessed as N25:0 level per mg protein at 500 nM after 48 hrs (reference value: 0.01 nmol). In kind it is functional.
The nature of assay [15]: Modulation of sphingomyelin pool in human L3.6p1 cells assessed as N21:0 level per mg protein at 500 nM after 48 hrs (reference value: 0.03 nmol). The assay is classed as functional.
Assay [16] is described as follows: Modulation of sphingomyelin pool in human L3.6p1 cells assessed as N14:0 level per mg protein at 500 nM after 48 hrs (reference value: 0.13 +/- 0.01 nmol). The assay is classed as functional.
Assay [17] can be described thus: Modulation of sphingomyelin pool in human L3.6p1 cells assessed as N24:1 level per mg protein at 500 nM after 48 hrs (reference value: 1.07 +/- 0.03 nmol). In kind it is functional.
Assay [18] in a line: Modulation of sphingomyelin pool in human L3.6p1 cells assessed as N22:1 level per mg protein at 500 nM after 48 hrs (reference value: 0.17 +/- 0.01 nmol). The assay is classed as functional.
A short description of assay [19]: Modulation of ceramide pool in human L3.6p1 cells assessed as N16:0 level per mg protein at 500 nM after 48 hrs (reference value: 0.08 +/- 0.01 nmol). The assay is classed as functional.
The nature of assay [20]: Modulation of sphingomyelin pool in human L3.6p1 cells assessed as N18:0 level per mg protein at 500 nM after 48 hrs (reference value: 0.19 +/- 0.01 nmol). In kind it is functional.
A short description of assay [21]: Modulation of sphingomyelin pool in human L3.6p1 cells assessed as N25:1 level per mg protein at 500 nM after 48 hrs (reference value: 0.02 +/- 0.01 nmol). In kind it is functional.
Assay [22] is described as follows: Modulation of sphingomyelin pool in human L3.6p1 cells assessed as N19:0 level per mg protein at 500 nM after 48 hrs (reference value: 0.01 nmol). The assay is classed as functional.
The nature of assay [23]: Antimigratory activity against human L3.6p1 cells at 0.5 uM after 24 hrs in presence of amine oxidase inhibitor aminoguanidine by scratch assay relative to control. In kind it is functional. The following applies: L3.6p1, 24 h.
The nature of assay [24]: Modulation of sphingomyelin pool in human L3.6p1 cells assessed as total sphingomyelin level per mg protein at 500 nM after 48 hrs (reference value: 5.91 +/- 0.11 nmol). The assay is classed as functional.
Assay [25] in a line: Modulation of sphingomyelin pool in human L3.6p1 cells assessed as N18:1 level per mg protein at 500 nM after 48 hrs (reference value: 0.07 nmol). In kind it is functional.
Assay [26] in a line: Modulation of sphingomyelin pool in human L3.6p1 cells assessed as N24:0 level per mg protein at 500 nM after 48 hrs (reference value: 0.32 +/- 0.01 nmol). In kind it is functional.
The nature of assay [27]: Modulation of sphingomyelin pool in human L3.6p1 cells assessed as N17:0 level per mg protein at 500 nM after 48 hrs (reference value: 0.05 +/- 0.01 nmol). The assay is classed as functional.
The nature of assay [28]: Modulation of sphingomyelin pool in human L3.6p1 cells assessed as N16:1 level per mg protein at 500 nM after 48 hrs (reference value: 0.28 +/- 0.01 nmol). In kind it is functional.
The species entered for assay [29] is Mus musculus. The experiment in a line: Increase in SGMS activity in mouse PancO2 cell lysates assessed as induction of NBD-sphingomyelin production at 1 uM using C12-NBD-ceramide substrate after 72 hrs by TLC relative to control.
Assay [30] in a line: Modulation of sphingomyelin pool in human L3.6p1 cells assessed as N20:0 level per mg protein at 500 nM after 48 hrs (reference value: 0.06 +/- 0.01 nmol). In kind it is functional.
Assay [31] is described as follows: Modulation of sphingomyelin pool in human L3.6p1 cells assessed as N20:1 level per mg protein at 500 nM after 48 hrs (reference value: 0.02 nmol). The assay is classed as functional.
The nature of assay [32]: Modulation of sphingomyelin pool in human L3.6p1 cells assessed as N26:1 level per mg protein at 500 nM after 48 hrs (reference value: 0.02 nmol). In kind it is functional.
A short description of assay [33]: Modulation of sphingomyelin pool in human L3.6p1 cells assessed as N15:0 level per mg protein at 500 nM after 48 hrs (reference value: 0.12 nmol). In kind it is functional.
The nature of assay [34]: Modulation of sphingomyelin pool in human L3.6p1 cells assessed as N22:0 level per mg protein at 500 nM after 48 hrs (reference value: 0.23 +/- 0.01 nmol). In kind it is functional.
Another assay relates to CHO-MG. The experiment in a line: Cytotoxicity against CHO-MG cells assessed as reduction in cell viability after 48 hrs in presence of aminoguanidine by MTS assay. In kind it is cell-based. The following applies: Cricetulus griseus.
Assay [35] is described as follows: Substrate activity at PTS in CHO cells assessed as reduction in cell viability after 48 hrs in presence of aminoguanidine by MTS assay. In kind it is cell-based. The following applies: Cricetulus griseus.

The text below walks through data of ChEMBL document CHEMBL4028869, “Synthesis and Bioevaluation of Macrocycle-Polyamine Conjugates as Cell Migration Inhibitors” (J Med Chem, 2017).

Broadly, the inhibition is the change of the read-out against control, counted positive when it falls. A word on the IC50: it is the midpoint of a concentration-inhibition curve.

The structures appear in SMILES notation.

As to `Cl.Cl.Cl.NCCCNCCCNCC1CCCCCCCCCCCCCC1`, the Activity was found to be 88% in the assay listed under Mus musculus [1]; 2.84 nmol in assay [2]; 0.09 nmol in assay [3]; 0.37 nmol in [6]; 0.14 nmol in assay [7]; 0.12 nmol in [8]. Besides, the Activity came to 0.36 nmol in assay [9]; 0.63 nmol in assay [11]; 0.02 nmol in assay [12]; 0.01 nmol in [13]; 0.02 nmol in assay [14]; 0.04 nmol in assay [15]. In addition, the Activity in assay [16] was 0.13 nmol; in assay [17], 1.22 nmol; in [18], 0.22 nmol; in assay [19] it was 0.11 nmol; in assay [20], 0.27 nmol; in assay [21] it was 0.03 nmol. Also, the Activity in [22] is on record as 0.01 nmol; in assay [24] it was 6.79 nmol; in assay [25], 0.1 nmol; in assay [26] it was 0.36 nmol; in assay [27], 0.06 nmol; in assay [28] it was 0.3 nmol. For the same compound, the Activity in the assay filed under Mus musculus [29] was 97%; in [30] it was 0.09 nmol; in assay [31], 0.03 nmol; in assay [32] it was 0.03 nmol; in assay [33], 0.13 nmol; in assay [34], 0.31 nmol. In [4], the “Ratio IC50” value amounted to 1. In addition, the inhibition at 1 µM in [5] is 29.9%. For the same compound, the IC5 in assay [10] came out at 80 µM. In addition, the half-inhibitory concentration (IC50) in assay [10] was determined as 89400 nM. The inhibition at 0.5 µM in assay [23] amounted to 20.2%.
Turning to `Cl.Cl.Cl.NCCCCNCCCCNCc1c2ccccc2cc2ccccc12`, the “Ratio IC50” value in assay [4] is recorded as 148.
On to `NCCNCCNCCN` [TRIENTINE], for which the inhibition at 1 µM in assay [5] was determined as 0%.
On to `Cl.Cl.Cl.NCCCNCCCNCCC1CCCCCCCCCCCCCC1`, for which the “Ratio IC50” value in assay [4] is 1.1. In addition, the inhibition at 1 µM in assay [5] is 1.5%. Also, the results for the IC50 (with CHO-MG; in assay [35]; in assay [10]) were 2800 nM, 2510 nM and 3340 nM, respectively. Besides, the IC5 in assay [10] amounted to 1.64 µM. In addition, the inhibition at 0.5 µM in assay [23] is -15.5%.
On to `Cl.Cl.Cl.Cl.NCCNCCNCCNCC1CCCCCCCCCCCCCC1`, for which the Activity in assay [2] amounted to 2.66 nmol; in assay [3] it was 0.08 nmol; in assay [6], 0.28 nmol; in [7], 0.11 nmol; in [8], 0.11 nmol; in [9] it was 0.31 nmol. Moreover, the Activity in assay [11] was found to be 0.49 nmol; in assay [12], 0.02 nmol; in assay [13] it was 0.01 nmol; in assay [14], 0.02 nmol; in assay [15], 0.03 nmol; in assay [16], 0.13 nmol. Besides, the Activity worked out at 1.15 nmol in [17]; 0.19 nmol in assay [18]; 0.09 nmol in assay [19]; 0.24 nmol in assay [20]; 0.02 nmol in [21]; 0.01 nmol in [22]. Moreover, the Activity in assay [24] was 6.25 nmol; in [25] it was 0.09 nmol; in [26] it was 0.32 nmol; in assay [27], 0.05 nmol; in assay [28] it was 0.28 nmol; in assay [30], 0.08 nmol. The Activity turned out to be 0.02 nmol in [31], 0.03 nmol in assay [32], 0.12 nmol in [33] and 0.28 nmol in assay [34]. The “Ratio IC50” value in assay [4] is reported as 1.1. For the same compound, the inhibition at 1 µM in assay [5] came to 16.8%. For the same compound, the IC50 in the assay with CHO-MG worked out at 2620 nM; in assay [35], 2370 nM; in assay [10] it was 1640 nM. Also, in assay [10], the IC5 came out at 0.92 µM. For the same compound, in assay [23], the inhibition at 0.5 µM amounted to 6.1%.
As to `Cl.Cl.NCCNCc1c2ccccc2cc2ccccc12`, in [4], the “Ratio IC50” value was 5.8. Also, the IC50 with CHO-MG amounted to 11300 nM; in assay [35], 1960 nM; in assay [10], 24100 nM. Further, the IC5 in assay [10] is 4.15 µM. In [23], the inhibition at 0.5 µM was 6.2%.
Turning to `Cl.Cl.NCCNCC1CCCCCCCCCCCCCC1`, the “Ratio IC50” value in [4] is recorded as 0.9. In addition, in assay [5], the inhibition at 1 µM is 26.2%. In addition, the concentration for half-maximal inhibition (IC50) in the assay on CHO-MG was 2370 nM; in assay [35] it was 2660 nM; in assay [10], 1440 nM. Also, the IC5 in [10] came to 0.6 µM. Besides, in assay [23], the inhibition at 0.5 µM is 6.2%.
Turning to `Cl.Cl.Cl.NCCCNCCCNC1CCCCCCCCCCCCCC1`, the results for the Activity in the assay listed under Mus musculus [1] and in the assay filed under Mus musculus [29] were 75% and 82%, respectively. Also, the “Ratio IC50” value in assay [4] is 2.1.
For `Cl.Cl.Cl.NCCNCCNCC1CCCCCCCCCCCCCC1`, in [4], the “Ratio IC50” value is given as 1. In addition, the inhibition at 1 µM in assay [5] turned out to be 26.8%. For the same compound, the IC50 in the assay with CHO-MG is 2550 nM; in assay [35], 2480 nM; in assay [10] it was 1250 nM. Moreover, the IC5 in assay [10] came out at 0.6 µM. In addition, in assay [23], the inhibition at 0.5 µM was determined as 10.2%.
With `NCCNCCN`, the inhibition at 1 µM in assay [5] was 0%.
